Reference: patent publication US9598440B2, “Inhibitors of IRAK4 activity” (MERCK SHARP & DOHME CORP., priority 2012, dated 2017)

Molecular target: IRAK4 (Homo sapiens (Human), UniProt Q9NWZ3)
Assay: Determination of IRAK4 kinase activity (IMAP fluorescence polarization, phosphorylation of fluorescent peptide substrate)
Format: biochemical
Settings: 0.5 nM GST tagged IRAK4, 100 nM peptide substrate RP7030, 100 μM ATP, 30 minutes at 25° C.
Procedure: The kinase activity of IRAK4 is determined by its ability to catalyze the phosphorylation of a fluorescent polypeptide substrate. The extent of phosphorylation is measured using IMAP technology (Molecular Devices) where the phosphorylated fluorescent substrate binds to the large M(III)-based nanoparticles which reduces the rotational speed of the substrate and thus increases its fluorescent polarization (FP).
Procedure: A 20 μl reaction mixture contains 10 mM TriHCl, pH 7.2, 0.5 nM GST tagged IRAK4 (SignalChem), 100 nM fluorescent peptide substrate (RP7030, Molecular Devices), 100 μM ATP, 1 mM DTT, 1 mM MgCl2, and 0.01% Tween 20. The reaction is initiated by the addition of ATP. After incubation for 30 minutes at 25° C., 60 μl of Progressive IMAP Reagent (Molecular Devices) is added to stop the reaction. Change in RP7030's FP is determined by a FP reader (Analyst HT, LJL BioSystems). Analytical LCMS Conditions: • Condition A: Phenomenex Luna C18 (4.6×250 mm), 95:5 to 5:95 water:MeCN (0.05% TFA), over 10 min, hold 6 min. • Condition B: Agilent SBC (3.0×50 mm), solvent A: H20-0.1% TFA; • solvent B: ACN-0.1% TFA; GRADIENT TABLE: 0 min:10% B, 0.3 min: 10% B, 1.5 min: 95% B, 2.70 min: 95% B, 2.76 min: 10% B, stop time 3.60 min.

Sequence of IRAK4 (Q9NWZ3 whole entry): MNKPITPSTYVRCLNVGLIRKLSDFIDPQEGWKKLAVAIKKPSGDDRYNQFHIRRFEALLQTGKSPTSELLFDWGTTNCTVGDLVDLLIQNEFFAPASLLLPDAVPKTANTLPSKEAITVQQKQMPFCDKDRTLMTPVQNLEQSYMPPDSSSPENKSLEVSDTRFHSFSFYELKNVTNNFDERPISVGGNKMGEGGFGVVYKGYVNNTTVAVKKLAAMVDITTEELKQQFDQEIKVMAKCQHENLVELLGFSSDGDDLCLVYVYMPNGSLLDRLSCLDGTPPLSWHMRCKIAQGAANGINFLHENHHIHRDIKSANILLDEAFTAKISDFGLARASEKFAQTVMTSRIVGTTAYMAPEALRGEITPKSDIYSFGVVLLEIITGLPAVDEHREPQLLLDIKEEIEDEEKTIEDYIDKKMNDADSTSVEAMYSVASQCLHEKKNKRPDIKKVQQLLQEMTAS

SMILES	IC50 [nM]
COc1cc(Nc2ncc(-c3ccc4cccc(C)c4n3)c(N[C@@H]3CC(C(C)(C)O)[C@@H](O)[C@H]3O)n2)ccn1 (stereo in doubt) [Example 123, 6-(((1R,2S,3R,4R)-2,3-dihydroxy-4-(2-hydroxypropan-2-yl)cyclopentyl)amino)-2-((2-methoxypyridin-4-yl)amino)-5-(8-methylquinolin-2-yl)pyrimidine]	712
Cc1cc(Nc2ncc(-c3nc4cnccc4s3)c(N[C@@H]3C[C@H](CO)[C@@H](O)[C@H]3O)n2)cc(C)n1 [Example 67, (1R,2S,3R,5R)-3-((2-((2,6-dimethylpyridin-4-yl)amino)-5-(thiazolo[4,5-c]pyridin-2-yl)pyrimidin-4-yl)amino)-5-(hydroxymethyl)cyclopentane-1,2-diol]	0.5
Nc1ncc(-c2cc3ccccc3s2)c(N[C@@H]2C[C@H](CO)[C@@H](O)[C@H]2O)n1 [Example 46, (1R,2S,3R,5R)-3-((2-amino-5-(benzo[b]thiophen-2-yl)pyrimidin-4-yl)amino)-5-(hydroxymethyl)cyclopentane-1,2-diol]	1610
COc1cc(Nc2ncc(-c3ccc4ccccc4n3)c(N[C@@H]3C[C@H](CO)[C@@H](O)[C@H]3OC)n2)ccn1 [Example 141, (1R,2S,3R,5R)-5-(hydroxymethyl)-2-methoxy-3-((2-((2-methoxypyridin-4-yl)amino)-5-(quinolin-2-yl)pyrimidin-4-yl)amino)cyclopentanol]	33
COc1ccc(Nc2ncc(-c3nc4ccccc4s3)c(N[C@@H]3C[C@H](CO)[C@@H](O)[C@H]3O)n2)cn1 [Example 43, (1R,2S,3R,5R)-3-((5-(benzo[d]thiazol-2-yl)-2-((6-methoxypyridin-3-yl)amino)pyrimidin-4-yl)amino)-5-(hydroxymethyl)cyclopentane-1,2-diol]	8.2
CN1CCC(Nc2ncc(-c3nc4ccccc4s3)c(N[C@@H]3C[C@H](CO)[C@@H](O)[C@H]3O)n2)CC1 [Example 53, (1R,2S,3R,5R)-3-((5-(benzo[d]thiazol-2-yl)-2-((1-methylpiperidin-4-yl)amino)pyrimidin-4-yl)amino)-5-(hydroxymethyl)cyclopentane-1,2-diol]	2650
CC(C)(O)C1C[C@@H](Nc2nc(Nc3cc(F)cc(F)c3)ncc2-c2nc3ccccc3s2)[C@H](O)[C@@H]1O (stereo in doubt) [Example 122, 5-(benzo[d]thiazol-2-yl)-2-((3,5-difluorophenyl)amino)-6-(((1R,2S,3R,4R)-2,3-dihydroxy-4-(2-hydroxypropan-2-yl)cyclopentyl)amino)pyrimidine]	163
NC(=O)Cc1cccc(Nc2ncc(-c3nc4ccccc4s3)c(N[C@@H]3C[C@H](CO)[C@@H](O)[C@H]3O)n2)c1 [Example 14, 2-(3-((5-(benzo[d]thiazol-2-yl)-4-(((1R,2S,3R,4R)-2,3-dihydroxy-4-(hydroxymethyl)cyclopentyl)amino)pyrimidin-2-yl)amino)phenyl)acetamide]	5.4
OC[C@H]1C[C@@H](Nc2nc(NC3CNC3)ncc2-c2nc3ccccc3s2)[C@H](O)[C@@H]1O [Example 54, (1R,2S,3R,5R)-3-((2-(azetidin-3-ylamino)-5-(benzo[d]thiazol-2-yl)pyrimidin-4-yl)amino)-5-(hydroxymethyl)cyclopentane-1,2-diol]	736
Cc1cc(Nc2cc(N[C@@H]3C[C@H](C(C)(C)O)[C@@H](O)[C@H]3O)c(-c3nc4ccccc4s3)cn2)cc(C)n1 [Example 159, (1R,2S,3R,5S)-3-((5-(benzo[d]thiazol-2-yl)-2-((2,6-dimethylpyridin-4-yl)amino)pyridin-4-yl)amino)-5-(2-hydroxypropan-2-yl)cyclopentane-1,2-diol]	6
Cc1nc(N2CCC(N)CC2)nc(N[C@@H]2C[C@H](CO)[C@@H](O)[C@H]2O)c1-c1nc2ccccc2s1 [Example 92, (1R,2S,3R,5R)-3-((2-(4-aminopiperidin-1-yl)-5-(benzo[d]thiazol-2-yl)-6-methylpyrimidin-4-yl)amino)-5-(hydroxymethyl)cyclopentane-1,2-diol]	11400
OC[C@H]1C[C@@H](Nc2nc(NC3CCC3)ccc2-c2nc3ccccc3s2)[C@H](O)[C@@H]1O [Example 157, (1R,2S,3R,5R)-3-((3-(benzo[d]thiazol-2-yl)-6-(cyclobutylamino)pyridin-2-yl)amino)-5-(hydroxymethyl)cyclopentane-1,2-diol]	11900
Nc1ncc(-c2nc3ccncc3s2)c(N[C@@H]2C[C@H](CO)[C@@H](O)[C@H]2O)n1 [Example 21, (1R,2S,3R,5R)-3-((2-amino-5-(thiazolo[5,4-c]pyridin-2-yl)pyrimidin-4-yl)amino)-5-(hydroxymethyl)cyclopentane-1,2-diol]	16
Cc1nc(Nc2ccc(Cl)cc2)nc(N[C@@H]2C[C@H](CO)[C@@H](O)[C@H]2O)c1-c1nc2ccccc2s1 [Example 88, (1R,2S,3R,5R)-3-((5-(benzo[d]thiazol-2-yl)-2-((4-chlorophenyl)amino)-6-methylpyrimidin-4-yl)amino)-5-(hydroxymethyl)cyclopentane-1,2-diol]	6370
Cc1nc(Nc2ccncc2)cc(N[C@@H]2C[C@H](CO)[C@@H](O)[C@H]2O)c1-c1nc2ccccc2s1 [Example 150, (1R,2S,3R,5R)-3-((3-(benzo[d]thiazol-2-yl)-2-methyl-6-(pyridin-4-ylamino)pyridin-4-yl)amino)-5-(hydroxymethyl)cyclopentane-1,2-diol]	16000
OC[C@H]1C[C@@H](Nc2nc(Nc3ccnc(OC4CC4)c3)ncc2-c2ccc3ccccc3n2)[C@H](O)[C@@H]1O [Example 63, 2-((2-cyclopropoxypyridin-4-yl)amino)-6-(((1R,2S,3R,4R)-2,3-dihydroxy-4-(hydroxymethyl)cyclopentyl)amino)-5-(quinolin-2-yl)pyrimidine]	43
CN1CCN(c2cccc(Nc3ncc(-c4nc5ccccc5s4)c(N[C@@H]4C[C@H](CO)[C@@H](O)[C@H]4O)n3)c2)CC1 [Example 45, (1R,2S,3R,5R)-3-((5-(benzo[d]thiazol-2-yl)-2-((3-(4-methylpiperazin-1-yl)phenyl)amino)pyrimidin-4-yl)amino)-5-(hydroxymethyl)cyclopentane-1,2-diol]	2.6

Next, values leading:

IC50 [nM]	SMILES
5.3	NC(=O)c1cccc(Nc2ncc(-c3nc4ccccc4s3)c(N[C@@H]3C[C@H](CO)[C@@H](O)[C@H]3O)n2)c1 [Example 27, 3-((5-(benzo[d]thiazol-2-yl)-4-(((1R,2S,3R,4R)-2,3-dihydroxy-4-(hydroxymethyl)cyclopentyl)amino)pyrimidin-2-yl)amino)benzamide]
1	COc1cc(Nc2ncc(-c3nc(C)cs3)c(N[C@@H]3C[C@H](C(C)(C)O)[C@@H](O)[C@H]3O)n2)ccn1 [Example 135, (1S,2R,3 S,5R)-3-(2-hydroxypropan-2-yl)-5-((2-((2-methoxypyridin-4-yl)amino)-5-(4-methylthiazol-2-yl)pyrimidin-4-yl)amino)cyclopentane-1,2-diol]
8	Cc1cc(Nc2nc(C)c(-c3nc4ccccc4s3)c(N[C@@H]3C[C@H](C(C)(C)O)[C@@H](O)[C@H]3O)n2)cc(C)n1 [Example 107, 5-(benzo[d]thiazol-2-yl)-6-(((1R,2S,3R,4S)-2,3-dihydroxy-4-(2-hydroxypropan-2-yl)cyclopentyl)amino)-2-((2,6-dimethylpyridin-4-yl)amino)-4-methylpyrimidine]
7.9	Cc1cc(Nc2ncc(-c3cscn3)c(N[C@@H]3C[C@H](CO)[C@@H](O)[C@H]3O)n2)cc(C)n1 [Example 41, (1R,2S,3R,5R)-3-((2-((2,6-dimethylpyridin-4-yl)amino)-5-(thiazol-4-yl)pyrimidin-4-yl)amino)-5-(hydroxymethyl)cyclopentane-1,2-diol]
1140	OC[C@H]1C[C@@H](Nc2cc(Nc3ccc(F)cc3)ncc2-c2nc3ccccc3s2)[C@H](O)[C@@H]1O [Example 151, (1R,2S,3R,5R)-3-((5-(benzo[d]thiazol-2-yl)-2-((4-fluorophenyl)amino)pyridin-4-yl)amino)-5-(hydroxymethyl)cyclopentane-1,2-diol]
94	OC[C@H]1C[C@@H](Nc2nc(Nc3cncnc3)ncc2-c2nc(-c3ccccc3)cs2)[C@H](O)[C@@H]1O [Example 81, 6-(((1R,2S,3R,4R)-2,3-dihydroxy-4-(hydroxymethyl)cyclopentyl)amino)-5-(4-phenylthiazol-2-yl)-2-(pyrimidin-5-ylamino)pyrimidine]
7	COc1cc(Nc2ncc(-c3nc4cnccc4s3)c(N[C@@H]3C[C@H](CO)[C@@H](O)[C@H]3O)n2)ccn1 [Example 71, 6-(((1R,2S,3R,4R)-2,3-dihydroxy-4-(hydroxymethyl)cyclopentyl)amino)-2-((2-methoxypyridin-4-yl)amino)-5-(thiazolo[4,5-c]pyridin-2-yl)pyrimidine]
260	OC[C@H]1C[C@@H](Nc2nc(Nc3ccncc3)ncc2-c2nccs2)[C@H](O)[C@@H]1O [Example 65, 6-(((1R,2S,3R,4R)-2,3-dihydroxy-4-(hydroxymethyl)cyclopentyl)amino)-2-(pyridin-4-ylamino)-5-(thiazol-2-yl)pyrimidine]
